{
  "source": "ChEMBL document CHEMBL1255387",
  "about": "“Mechanism of hepatitis C virus RNA polymerase inhibition with dihydroxypyrimidines” (Antimicrob Agents Chemother, 2010)",
  "key": {"[1]": {"molecular_target": "T1, RNA-directed RNA polymerase (Hepacivirus hominis, UniProt O39930)", "T1 sequence (O39930 whole entry)": "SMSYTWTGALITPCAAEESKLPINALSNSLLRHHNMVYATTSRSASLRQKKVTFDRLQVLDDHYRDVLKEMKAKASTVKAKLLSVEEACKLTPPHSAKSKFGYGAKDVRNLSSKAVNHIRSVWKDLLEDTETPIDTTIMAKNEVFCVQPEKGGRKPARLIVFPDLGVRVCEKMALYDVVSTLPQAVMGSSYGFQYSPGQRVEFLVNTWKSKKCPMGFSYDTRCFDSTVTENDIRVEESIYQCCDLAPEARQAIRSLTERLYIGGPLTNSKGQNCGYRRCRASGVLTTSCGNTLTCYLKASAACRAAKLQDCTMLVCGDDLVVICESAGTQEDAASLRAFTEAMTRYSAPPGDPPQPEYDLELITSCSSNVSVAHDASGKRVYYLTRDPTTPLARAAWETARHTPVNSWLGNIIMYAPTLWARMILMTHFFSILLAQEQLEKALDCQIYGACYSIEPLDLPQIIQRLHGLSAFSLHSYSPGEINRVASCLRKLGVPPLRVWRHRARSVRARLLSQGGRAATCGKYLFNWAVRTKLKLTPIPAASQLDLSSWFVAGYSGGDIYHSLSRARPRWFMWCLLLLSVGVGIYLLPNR", "assay": "Displacement of 100 uM PPi from NS5B in Hepatitis C virus"}, "[2]": {"molecular_target": "T1, RNA-directed RNA polymerase", "assay": "Inhibition of NS5B-mediated RNA synthesis in Hepatitis C virus assessed as decrease in formation of full-length product after 45 mins"}, "[3]": {"molecular_target": "T1, RNA-directed RNA polymerase", "assay": "Displacement of 500 uM PPi from NS5B in Hepatitis C virus"}, "[4]": {"molecular_target": "T1, RNA-directed RNA polymerase", "assay": "Displacement of 1 uM UTP from NS5B in Hepatitis C virus"}, "[5]": {"molecular_target": "RNA-directed RNA polymerase (Hepacivirus hominis, UniProt O39930, G152E)", "sequence (O39930 entry or part of it G152E)": "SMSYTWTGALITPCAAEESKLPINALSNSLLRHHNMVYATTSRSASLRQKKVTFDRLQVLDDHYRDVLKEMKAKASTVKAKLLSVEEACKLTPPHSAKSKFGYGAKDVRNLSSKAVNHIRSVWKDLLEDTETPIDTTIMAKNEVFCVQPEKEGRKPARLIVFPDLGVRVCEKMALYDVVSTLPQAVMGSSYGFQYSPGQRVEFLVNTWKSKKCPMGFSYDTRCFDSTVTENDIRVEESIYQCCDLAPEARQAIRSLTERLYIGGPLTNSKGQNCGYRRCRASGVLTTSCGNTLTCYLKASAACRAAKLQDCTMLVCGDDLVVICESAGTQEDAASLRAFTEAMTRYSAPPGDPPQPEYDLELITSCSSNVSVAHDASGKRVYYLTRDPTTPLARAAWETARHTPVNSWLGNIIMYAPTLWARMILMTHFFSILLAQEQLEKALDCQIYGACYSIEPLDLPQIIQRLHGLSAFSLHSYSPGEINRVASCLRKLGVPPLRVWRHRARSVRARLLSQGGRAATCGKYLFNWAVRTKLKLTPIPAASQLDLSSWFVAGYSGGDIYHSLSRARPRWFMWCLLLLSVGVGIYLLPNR", "assay": "Inhibition of NS5B G152E mutant-mediated RNA synthesis in Hepatitis C virus as decrease in formation of full-length product after 45 mins"}, "[6]": {"molecular_target": "T1, RNA-directed RNA polymerase", "assay": "Displacement of 50 uM PPi from NS5B in Hepatitis C virus"}, "[7]": {"molecular_target": "RNA-directed RNA polymerase (Hepacivirus hominis, UniProt O39930, P156L)", "sequence (O39930 entry or part of it P156L)": "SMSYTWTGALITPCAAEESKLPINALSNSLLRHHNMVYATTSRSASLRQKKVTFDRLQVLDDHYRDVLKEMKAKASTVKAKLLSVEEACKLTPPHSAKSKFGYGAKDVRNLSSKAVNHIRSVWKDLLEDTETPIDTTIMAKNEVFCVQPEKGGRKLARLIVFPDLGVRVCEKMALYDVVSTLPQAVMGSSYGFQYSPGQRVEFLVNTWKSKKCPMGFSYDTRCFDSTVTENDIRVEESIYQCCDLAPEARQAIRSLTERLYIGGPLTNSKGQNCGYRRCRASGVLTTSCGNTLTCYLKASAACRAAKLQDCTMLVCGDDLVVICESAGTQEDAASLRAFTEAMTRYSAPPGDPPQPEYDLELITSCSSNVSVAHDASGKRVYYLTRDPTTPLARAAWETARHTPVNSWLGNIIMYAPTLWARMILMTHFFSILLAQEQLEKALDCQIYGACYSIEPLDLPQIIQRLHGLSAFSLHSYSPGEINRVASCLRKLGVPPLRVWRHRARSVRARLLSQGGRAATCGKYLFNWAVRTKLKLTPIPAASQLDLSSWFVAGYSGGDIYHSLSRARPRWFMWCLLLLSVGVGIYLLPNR", "assay": "Inhibition of NS5B P156L mutant-mediated RNA synthesis in Hepatitis C virus as decrease in formation of full-length product after 45 mins"}, "[8]": {"molecular_target": "T1, RNA-directed RNA polymerase", "assay": "Displacement of 5 uM UTP from NS5B in Hepatitis C virus"}, "[9]": {"molecular_target": "T1, RNA-directed RNA polymerase", "assay": "Displacement of 0.1 uM UTP from NS5B in Hepatitis C virus"}},
  "data": [
    {"smiles": "O=C(Nc1ccsc1-c1nc(O)c(O)c(C(=O)O)n1)OCc1c(Cl)cccc1Cl", "values": [
      {"measurement": "IC50", "setting": "[1]", "result": 302, "unit": "nM"},
      {"measurement": "IC50", "setting": "[2]", "result": 730, "unit": "nM"},
      {"measurement": "IC50", "setting": "[3]", "result": 882, "unit": "nM"},
      {"measurement": "IC50", "setting": "[4]", "result": "> 500", "unit": "nM"},
      {"measurement": "IC50", "setting": "[5]", "result": 3780, "unit": "nM"},
      {"measurement": "IC50", "setting": "[6]", "result": 174, "unit": "nM"},
      {"measurement": "IC50", "setting": "[7]", "result": 5390, "unit": "nM"},
      {"measurement": "IC50", "setting": "[8]", "result": "> 1000", "unit": "nM"},
      {"measurement": "IC50", "setting": "[9]", "result": 258, "unit": "nM"}
    ]}
  ]
}
